Assays:
COL II [1] = experiment: Screening of COL II mRNA expression under 3D culture conditions (FIG. 4B); type: cell-based, Human; details: 0.1 μM
Description: Various antifolates were screened to evaluate their effects on cell proliferation and viability and their chondrogenic potential. The antifolates used were dapsone (1), methotrexate (2), pemetrexed (3), pralatrexate (4), proguanil (5), pyrimethamine (6), and trimethoprim (7). Stem cells loaded in a PEG-PA thermogel scaffold containing each antifolate or KGN were cultured in a DMEM growth medium containing FBS (10.0% v/v) for 21 days. A control experiment was performed under the same conditions, except that no antifolate was added.
Expression of chondrogenic biomarkers was investigated in the presence of antifolates. The expression of COL II, the most widely used biomarker for chondrogenic differentiation of stem cells, was investigated at the mRNA level (FIG. 4B).

COL II [2] = experiment: COL II mRNA expression by qPCR in TMSCs in PEG-PA 3D matrix; type: cell-based, Human; details: 0.1 μM; for COL II mRNA level compared to control system, day 14: day 14, vs control system containing no antifolate; for COL II expression level compared to control system (day not given): vs control system, time point not given
Source text: (§1) Based on the screening results obtained in Example 3, dapsone (1), pralatrexate (4), and trimethoprim (7) were selected as antifolate candidates.
(§2) Human TMSCs used as stem cells were donated from Ewha Womans University Mokdong Hospital (Seoul, Korea). The cells were isolated from a donor after tonsillectomy in compliance with the ethical guidelines of the University. DMEM (Corning, USA) containing 10.0% (v/v) fetal bovine serum (FBS, Corning, USA), 1.0% (v/v) penicillin/streptomycin (PS, Corning, USA) and 1.0% (v/v) […] (AA, Corning, USA) was used as a growth medium, and the isolated human TMSCs were cultured using the growth medium in traditional polystyrene culture dishes at 37° C. under 5% CO2 atmosphere. Then, the stem cells (passage 7, 0.5×10^6 cells/well) were mixed with the aqueous PEG-PA solution (10.0 wt % in growth medium) containing an antifolate or KGN at 20° C. A system containing no antifolate or KGN was used as a control. The TMSC-suspended solution was injected into a 24-well culture plate (0.2 ml/well) at 37° C. to form a hydrogel matrix. The medium was replaced every 3 days during a 3D culture period of 21 days, and each experiment was performed in triplicate.
(§3) Chondrogenic differentiation of TMSCs was investigated at the mRNA and protein levels of chondrogenic biomarkers such as COL II, SOX 9, and ACAN. Gene expression levels were determined compared to that of a control system containing no antifolate using equal amounts of cDNA. COL I, an osteogenic biomarker, was also used to determine whether osteogenic differentiation occurred when an antifolate was used.
(§4) Specifically, after 0, 14, and 21 days of 3D culture, mRNA was extracted from the cells in the thermogel by using a TRIZOL™ reagent (Invitrogen, USA) according to the manufacturer's protocol, and the mRNA concentration was assayed by a Nano Drop 2000 spectrometer (Thermo Scientific, USA). Equal amounts of cDNA were used in qPCR to determine gene expression levels compared to that of the control system containing no antifolate. Then, total cDNA was synthesized using a ReverTra Ace® qPCR RT kit (Toyobo, Japan), and mRNA expression levels were measured using a CFX96™ real-time RT-PCR system (Bio-Rad, USA) and an iQ™ SYBR® Green Supermix solution (Bio-Rad, USA). The relative expression levels of target genes were calculated as 2^−ΔΔCt by the following calculation equation: ΔΔCt=(gene A−GAPDH)t−(gene A−GAPDH)0. Here, the subscript 0 refers to data on day 0 (3 hours). The primer sequences used for amplification are shown in Table 1 below, and each test value was determined as the mean value of triplicate determinations.

ACAN [3] = experiment: ACAN mRNA expression by qPCR in TMSCs in PEG-PA 3D matrix; type: cell-based, Human; details: 0.1 μM; for ACAN expression level on day 14 compared to control system: day 14, vs control system containing no antifolate; for ACAN mRNA level on day 14 compared to day 0: day 14 vs day 0 (3 hours after start of culture)
Source text: as §1, §2, §3
as §4, with “[…],” for “after 0, 14, and 21 days of 3D culture,”

[4] = In vitro drug release from PEG-PA thermogel into PBS (HPLC); type: physicochemical; details: from PEG-PA thermogel (10.0 wt %) into PBS, 37° C.
Description: The drug release profile of the thermogel was determined in vitro. […] The temperature of the polymer solution containing the drug was increased to 37° C. to cause a sol-gel transition. After 30 minutes, phosphate-buffered saline (PBS) (1.2 mL, 37° C.) was added thereto, and the mixture was placed in a shaking thermostatic bath with 40 strokes/min at 37° C. PBS was replaced at specific sampling intervals. The drug released into the medium, PBS, was analyzed by a high-performance liquid chromatography system (HPLC; Waters 1525B, USA) equipped with a photodiode detector (Waters 2998, USA) and a Jupiter@5 μm C18 300A LC column (Phenomenex, USA). As a mobile phase, a mixed solvent of methanol/water (40/60 v/v) containing trifluoroacetic acid (0.1%) was used for dapsone, pralatrexate and trimethoprim, and a mixed solvent of acetonitrile/water (35/65 v/v) containing formic acid (0.1%) was used for KGN. The flow rate was set at 1.0 ml/min. The amount of drug released was analyzed at 260 nm for dapsone, 307 nm for pralatrexate, 287 nm for trimethoprim, and 274 nm for KGN, and was determined as the mean value of triplicate determinations.

SOX 9 [5] = experiment: SOX 9 mRNA expression by qPCR in TMSCs in PEG-PA 3D matrix; type: cell-based, Human; details: 0.1 μM
Source text: as §1, §2, §3
as §4, with “[…],” for “after 0, 14, and 21 days of 3D culture,”

COL II [6] = experiment: COL II protein expression by immunofluorescence assay; type: cell-based, Human; details: 0.1 μM, 14 days 3D culture
Description: (§5) Protein expression for COL II, SOX 9, ACAN and COL I was investigated using immunofluorescence assay for stem cells cultured for 14 days. Specifically, TMSCs, which were 3D cultured with antifolates or KGN for 14 days and then encapsulated in thermogel scaffolds, were fixed with 4.0% paraformaldehyde (PFA) for 12 hours and quickly frozen at −70° C. Then, the thermogels were cryosectioned to a thickness of 10 μm using CM1850 (Leica, Germany). All the samples were treated with Triton (0.25% v/v in PBS), and then blocked with bovine serum albumin (1.0% w/v in PBS), and treated with anti-COL II, anti-SOX 9, anti-ACAN, and anti-COL I primary antibodies. Next, the samples were washed with PBS and treated with the following secondary antibodies: goat anti-mouse IgG H&L Alexa Fluor®594 for COL II and ACAN, and goat anti-rabbit IgG H&L Alexa Fluor®594 for SOX 9 and COL I. All the antibodies were purchased from Abcam (USA) and tested according to the manufacturer's protocol. In addition, each sample was stained for nuclei and F-actin with DAPI (Molecular probes, USA) and phalloidin (PHD) (Abcam, USA), respectively. Images were obtained using an Olympus IX71 fluorescence microscope and Olympus DP2-BSW software.
(§6) For immunofluorescence assay, the cell nucleus and actin were stained blue and green with DAPI and PHD, respectively, and the antibodies for each protein were stained red.

SOX 9 [7] = experiment: SOX 9 protein expression by immunofluorescence assay; type: cell-based, Human; details: 0.1 μM, 14 days 3D culture
Description: as §5, §6

ACAN [8] = experiment: ACAN protein expression by immunofluorescence assay; type: cell-based, Human; details: 0.1 μM, 14 days 3D culture
Description: as §5, §6

CBFβ = experiment: Nuclear translocation of CBFβ in TMSCs by Western blot; type: cell-based, Human; details: serum-free growth medium after overnight starvation
Source text: Filamin A is an actin-binding protein that regulates the cytoskeletal network involved in chondrogenic differentiation. When KGN binds to filamin A in the cytosol, the interaction between filamin A and CBFβ is broken, and when the dissociated CBFβ enters the nucleus, CBFβ regulates RUNX1, thereby promoting differentiation of MSCs into chondrocytes. Whether the antifolate can be involved in this mechanism and regulate chondrogenic differentiation-related factors was examined by Western blot analysis and immunofluorescence assay.
Specifically, for Western blot analysis, stem cells (TMSCs) were starved overnight and then treated with each antifolate or KGN in serum-free growth medium. Then, cytosolic and nuclear proteins of the TMSCs were obtained using a nuclear/cytosolic fractionation kit (Cell Biolabs Inc., USA) and total protein was obtained using a cell extraction buffer (Invitrogen, USA) containing a protease inhibitor and phenyl methane sulfonyl fluoride (1.0 mM). Each of the cytosolic and nuclear proteins was loaded, detected with anti-CBFβ primary antibody (Cell Signaling Technology, USA), and then treated with anti-rabbit IgG HRP-conjugated secondary antibody (Cell Signaling Technology, USA) and incubated. Then, the proteins were visualized with an enhanced chemiluminescence substrate (Bio-rad, USA) using an Amersham Imager 600 (GE, UK).

RUNX1 = RUNX1 immunofluorescence in TMSCs; type: cell-based, Human; details: serum-free growth medium after overnight starvation
Description: For immunofluorescence assay, stem cells were starved overnight and then treated with each antifolate or KGN in serum-free growth medium. Each cell was treated with bovine serum albumin (1.0% w/v in PBS), and then treated with anti-CBFβ primary antibody (Abcam, USA) and anti-RUNX1 primary antibody (Santa Cruz Biotechnology, USA) and incubated. The cells were treated with anti-rabbit IgG H&L secondary antibodies (Abcam, USA) and anti-mouse IgG H&L secondary antibodies (Abcam, USA) against CBFβ and RUNX1, respectively. The cell nuclei were stained with DAPI (Molecular probes, USA), and each image was obtained using an Olympus IX71 fluorescence microscope and Olympus DP2-BSW software.

| drug released over 24 hours [4] | SMILES | mRNA expression level of COL II compared to control (COL II [1]) | COL II mRNA level compared to control system, day 14 (COL II [2]) | COL II expression level compared to control system (day not given) (COL II [2]) | ACAN expression level on day 14 compared to control system (ACAN [3]) | ACAN mRNA level on day 14 compared to day 0 (ACAN [3]) | ACAN mRNA level relative to control system, day 20 (ACAN [3]; day 20) | COL II expression, rank among systems (COL II [2]) | COL II expression relative to KGN (COL II [2]; day 14) | COL II expression on day 14 compared to day 0 (COL II [2]; day 14 vs day 0 (3 hours after start of culture)) | SOX 9 expression change (SOX 9 [5]) | SOX 9 mRNA level, rank among systems (SOX 9 [5]) | SOX 9 mRNA expression level compared to control system, day 14 (SOX 9 [5]) | fluorescence intensity of COL II protein (COL II [6]) | fluorescence intensity of SOX 9 protein (SOX 9 [7]) | fluorescence intensity of ACAN protein (ACAN [8]) | nuclear translocation of CBFβ (nuclear versus cytosolic band intensity, FIG. 8B) (CBFβ) | fluorescence intensity of RUNX1 in the nucleus compared to control (RUNX1) |
| --- | --- | --- | --- | --- | --- | --- | --- | --- | --- | --- | --- | --- | --- | --- | --- | --- | --- | --- |
|  | O=C(O)c1ccccc1C(=O)Nc1ccc(-c2ccccc2)cc1 [KGN, kartogenin] | 1.5 fold | 1.7 fold | 2.1 fold | 1.7 fold | 5 fold | approximately 3.7 times |  |  |  |  |  |  |  |  |  |  |  |
| 70% | Nc1ccc(S(=O)(=O)c2ccc(N)cc2)cc1 [dapsone] | 1.8 fold |  | 2.6 fold |  |  |  |  |  |  |  |  |  |  |  |  |  |  |
| 79% | C#CCC(Cc1cnc2nc(N)nc(N)c2n1)c1ccc(C(=O)N[C@@H](CCC(=O)O)C(=O)O)cc1 (stereo partly shown) [pralatrexate] | 2.1 fold | 3.9 fold | 3.5 fold | 4.3 fold | 12 fold |  | highest | 2 fold | 10 fold | significantly (p<0.01) increased | highest | 4.2 fold | highest | highest | highest | increased | increased |
| 79% | COc1cc(Cc2cnc(N)nc2N)cc(OC)c1OC [trimethoprim] | 1.5 fold | 2.1 fold | 2.1 fold | 2.2 fold | 6 fold |  |  |  |  | significantly (p<0.01) increased |  | 2.9 fold |  |  |  |  |  |
